Experimental findings from article PMC3429506, “Screening for Novel LRRK2 Inhibitors Using a High-Throughput TR-FRET Cellular Assay for LRRK2 Ser935 Phosphorylation” (PLoS ONE, 2012) are described below.

For orientation: inhibition means the change of the read-out against control, counted positive when it falls.

The target in data set [1] is T1, LRRK2 wild-type (Homo sapiens, UniProt Q5S007). The experiment in a line: TR-FRET cellular assay for LRRK2 Ser935 phosphorylation, U-2 OS cells, BacMam LRRK2-GFP wild-type. In kind it is cell-based. On the set-up: This high-throughput assay utilizes cells expressing full-length human LRRK2 with a C-terminal GFP tag (LRRK2-GFP); host or cells: U-2 OS cells transduced with BacMam. The note with it: WT, +/- SD, three independent experiments, * = partial inhibition, read-out: IC50, TR-FRET cell-based assay for Ser935 phosphorylation of LRRK2. As to the method:
(§1) U-2 OS cells are maintained in growth medium (McCoy’s 5A supplemented with 10% dialyzed FBS (dFBS), 10 mM HEPES, 0.1 mM NEAA, 1 mM Sodium Pyruvate, and 100 U/mL Penicillin/100 µg/mL Streptomycin). HEK293T cells are maintained in DMEM with 10% dFBS, 10 mM HEPES, 0.1 mM NEAA and 100 U/mL Penicillin/100 µg/mL Streptomycin. SH-SY5Y cells are maintained in DMEM/F-12 medium supplemented with 10% dFBS and 100 U/mL Penicillin/100 µg/mL Streptomycin. […] GIBCO® human neural stem cells (hNSCs) were propagated as an adherent culture in StemPro® NSC SFM according to the manufacturer’s recommended protocol (Life Technologies). For BacMam transduction of U-2 OS and HEK293T, cells were harvested, mixed with various amounts of BacMam LRRK2-GFP reagent (v/v) and plated onto 6-well plates. […] Cells were assayed in 384-well format (∼20,000 cells/well) 48 hours post-transduction as above.
(§2) Transduced cells in the 384-well assay plate were incubated with indicated inhibitors (5X, 5 µL/well) for 60 to 90 minutes. During this time, 6 X lysis buffer (Life Technologies) was supplemented with 30 nM Tb-labeled anti-LRRK2 pSer935 antibody and both protease and phosphatase inhibitor cocktails (Sigma). The complete 6 X lysis buffer was added to each well (5 µL/well) and the plates were incubated at room temperature in the dark for 2 hours. […] A sigmoidal dose-response equation with varying slope was used to fit the data and generate IC50 values. Z′-factor values were calculated as: Z′-factor = 1 - [(3 × stdevno virus +3 × stdevmaxvirus)/(avgmaxvirus – avgno-virus)]. The IC50 values reported in Table 1 are the averaged numbers from three independent experiments.
(TR-FRET usually uses a lanthanide donor and a delayed reading to cut background.)

Data set [2] has as its target T2, LRRK2 G2019S (Homo sapiens, UniProt Q5S007, G2019S). The data set can be described thus: TR-FRET cellular assay for LRRK2 Ser935 phosphorylation, U-2 OS cells, BacMam LRRK2-GFP G2019S. In kind it is cell-based. More on the design: This high-throughput assay utilizes cells expressing full-length human LRRK2 with a C-terminal GFP tag (LRRK2-GFP); host or cells: U-2 OS, SH-SY5Y, HEK293T cells or human neural stem cells transduced with BacMam. The note with it: G2019S, +/- SD, three independent experiments, * = partial inhibition, read-out: IC50, TR-FRET cell-based assay for Ser935 phosphorylation of LRRK2. As to the method:
as §1, §2

The target in data set [3] is T2, LRRK2 G2019S. The experiment in a line: TR-FRET cellular assay for LRRK2 Ser935 phosphorylation, SH-SY5Y cells, BacMam LRRK2-GFP G2019S (incl. Tocriscreen Mini library screen and follow-up). The class given is cell-based. More on the design: This high-throughput assay utilizes cells expressing full-length human LRRK2 with a C-terminal GFP tag (LRRK2-GFP); host or cells: SH-SY5Y cells transduced with BacMam. The note with it: for pIC50: three independent experiments; for inhibition at 20 µM: read-out: %Inhibition Initial screen; for Cellular TR-FRET Assay Max % Inhibition: 90 min. The protocol:
as §1, §2
40 nL of 10 mM Tocris library compounds in DMSO were dispensed into each well of the assay plate by the ECHO system. Equal volumes of DMSO were dispensed into the control wells. Cells were incubated with compounds for 90 to 120 min prior to cell lysis and detection as described above. The percent inhibition is calculated as: [(average emission ratios of DMSO control wells – average emission ratios of compound wells)/(average emission ratios of DMSO control wells – average emission ratios of LRRK2-IN-1 treated wells)] * 100. For the dose-response follow-up studies, fresh compound DMSO stock solutions were prepared from powder. […] Z′-factor value was calculated as: Z′-factor = 1 - [(3 × stdevLRRK2-IN-1+3 × stdevDMSO)/(avgDMSO – avgLRRK2-IN-1)]. The IC50 values reported in Table 2 are the averaged numbers from three independent experiments for both cellular and biochemical TR-FRET assays and one representative result of two independent experiments for the cytotoxicity assay.

The target in data set [4] is T1, LRRK2 wild-type. The data set can be described thus: TR-FRET cellular assay for LRRK2 Ser935 phosphorylation, SH-SY5Y cells, BacMam LRRK2-GFP wild-type. The conditions noted are these: WT, +/- SD, three independent experiments, * = partial inhibition, read-out: IC50, TR-FRET cell-based assay for Ser935 phosphorylation of LRRK2. The class given is cell-based. On the set-up: This high-throughput assay utilizes cells expressing full-length human LRRK2 with a C-terminal GFP tag (LRRK2-GFP); host or cells: SH-SY5Y cells transduced with BacMam. The protocol: as §1, §2

Data set [5] deals with LRRK2 Ser935 phosphorylation. The data set can be described thus: TR-FRET cellular assay for LRRK2 Ser935 phosphorylation (cell background not given). The class given is cell-based, human. The conditions noted are these: result in words. The protocol:
Transduced cells in the 384-well assay plate were incubated with indicated inhibitors (5X, 5 µL/well) for 60 to 90 minutes. During this time, 6 X lysis buffer (Life Technologies) was supplemented with 30 nM Tb-labeled anti-LRRK2 pSer935 antibody and both protease and phosphatase inhibitor cocktails (Sigma). The complete 6 X lysis buffer was added to each well (5 µL/well) and the plates were incubated at room temperature in the dark for 2 hours. The plate was then read on an EnVision® multilabel plate reader (PerkinElmer, Waltham, MA) with excitation at 340 nm and emission 520 nm and 495 nm. […]. A sigmoidal dose-response equation with varying slope was used to fit the data and generate IC50 values. […]. The IC50 values reported in Table 1 are the averaged numbers from three independent experiments.

Data set [6] in a line: in vitro. The conditions noted are these: human.
For data set [7], the target named is T2, LRRK2 G2019S. The experiment in a line: In vitro biochemical LRRK2 TR-FRET activity assay. The note with it: for pIC50: LRRK2 G2019S, ATP 134 µM (Km,app), LRRKtide substrate, three independent experiments, read-out: Biochemical LRRK2 assay IC50 +/- SD. As to the method: The Biochemical LRRK2 TR-FRET activity assay was performed according to the manufacture recommended assay protocol (Life Technologies). […] After incubation at room temperature for 1 hour, the kinase reactions were stopped by addition of 10 µL of 20 mM EDTA and 4 nM Tb-anti-pERM (pLRRKtide) antibody in TR-FRET dilution buffer (Life Technologies). After a 30 minute incubation at room temperature, TR-FRET measurements were obtained on a BMG PHERAstar plate reader using LanthaScreen® filters and settings. A 16 point, 2-fold dilution series of each compound was tested in triplicate at each concentration and assays were also performed in triplicate.

Data set [8] has as its target T2, LRRK2 G2019S. The experiment in a line: TR-FRET cellular assay for LRRK2 Ser935 phosphorylation, HEK293T cells, BacMam LRRK2-GFP G2019S. More on the design: This high-throughput assay utilizes cells expressing full-length human LRRK2 with a C-terminal GFP tag (LRRK2-GFP); host or cells: HEK293T cells transduced with BacMam. The conditions noted are these: +/- SD, three independent experiments, * = partial inhibition, read-out: IC50, TR-FRET cell-based assay for Ser935 phosphorylation of LRRK2. As to the method: as §1, §2

In data set [9] the target is T1, LRRK2 wild-type. The experiment in a line: TR-FRET cellular assay for LRRK2 Ser935 phosphorylation, HEK293T cells, BacMam LRRK2-GFP wild-type. More on the design: This high-throughput assay utilizes cells expressing full-length human LRRK2 with a C-terminal GFP tag (LRRK2-GFP); host or cells: HEK293T cells transduced with BacMam. The note with it: WT, +/- SD, three independent experiments, * = partial inhibition, read-out: IC50, TR-FRET cell-based assay for Ser935 phosphorylation of LRRK2. As to the method:
as §1, §2

The target of data set [10] is T3, GFP-LRRK2 G2019S (Homo sapiens, UniProt Q5S007, G2019S).
T3 construct: expressed in transfected cells
T3 sequence (Q5S007 whole entry G2019S): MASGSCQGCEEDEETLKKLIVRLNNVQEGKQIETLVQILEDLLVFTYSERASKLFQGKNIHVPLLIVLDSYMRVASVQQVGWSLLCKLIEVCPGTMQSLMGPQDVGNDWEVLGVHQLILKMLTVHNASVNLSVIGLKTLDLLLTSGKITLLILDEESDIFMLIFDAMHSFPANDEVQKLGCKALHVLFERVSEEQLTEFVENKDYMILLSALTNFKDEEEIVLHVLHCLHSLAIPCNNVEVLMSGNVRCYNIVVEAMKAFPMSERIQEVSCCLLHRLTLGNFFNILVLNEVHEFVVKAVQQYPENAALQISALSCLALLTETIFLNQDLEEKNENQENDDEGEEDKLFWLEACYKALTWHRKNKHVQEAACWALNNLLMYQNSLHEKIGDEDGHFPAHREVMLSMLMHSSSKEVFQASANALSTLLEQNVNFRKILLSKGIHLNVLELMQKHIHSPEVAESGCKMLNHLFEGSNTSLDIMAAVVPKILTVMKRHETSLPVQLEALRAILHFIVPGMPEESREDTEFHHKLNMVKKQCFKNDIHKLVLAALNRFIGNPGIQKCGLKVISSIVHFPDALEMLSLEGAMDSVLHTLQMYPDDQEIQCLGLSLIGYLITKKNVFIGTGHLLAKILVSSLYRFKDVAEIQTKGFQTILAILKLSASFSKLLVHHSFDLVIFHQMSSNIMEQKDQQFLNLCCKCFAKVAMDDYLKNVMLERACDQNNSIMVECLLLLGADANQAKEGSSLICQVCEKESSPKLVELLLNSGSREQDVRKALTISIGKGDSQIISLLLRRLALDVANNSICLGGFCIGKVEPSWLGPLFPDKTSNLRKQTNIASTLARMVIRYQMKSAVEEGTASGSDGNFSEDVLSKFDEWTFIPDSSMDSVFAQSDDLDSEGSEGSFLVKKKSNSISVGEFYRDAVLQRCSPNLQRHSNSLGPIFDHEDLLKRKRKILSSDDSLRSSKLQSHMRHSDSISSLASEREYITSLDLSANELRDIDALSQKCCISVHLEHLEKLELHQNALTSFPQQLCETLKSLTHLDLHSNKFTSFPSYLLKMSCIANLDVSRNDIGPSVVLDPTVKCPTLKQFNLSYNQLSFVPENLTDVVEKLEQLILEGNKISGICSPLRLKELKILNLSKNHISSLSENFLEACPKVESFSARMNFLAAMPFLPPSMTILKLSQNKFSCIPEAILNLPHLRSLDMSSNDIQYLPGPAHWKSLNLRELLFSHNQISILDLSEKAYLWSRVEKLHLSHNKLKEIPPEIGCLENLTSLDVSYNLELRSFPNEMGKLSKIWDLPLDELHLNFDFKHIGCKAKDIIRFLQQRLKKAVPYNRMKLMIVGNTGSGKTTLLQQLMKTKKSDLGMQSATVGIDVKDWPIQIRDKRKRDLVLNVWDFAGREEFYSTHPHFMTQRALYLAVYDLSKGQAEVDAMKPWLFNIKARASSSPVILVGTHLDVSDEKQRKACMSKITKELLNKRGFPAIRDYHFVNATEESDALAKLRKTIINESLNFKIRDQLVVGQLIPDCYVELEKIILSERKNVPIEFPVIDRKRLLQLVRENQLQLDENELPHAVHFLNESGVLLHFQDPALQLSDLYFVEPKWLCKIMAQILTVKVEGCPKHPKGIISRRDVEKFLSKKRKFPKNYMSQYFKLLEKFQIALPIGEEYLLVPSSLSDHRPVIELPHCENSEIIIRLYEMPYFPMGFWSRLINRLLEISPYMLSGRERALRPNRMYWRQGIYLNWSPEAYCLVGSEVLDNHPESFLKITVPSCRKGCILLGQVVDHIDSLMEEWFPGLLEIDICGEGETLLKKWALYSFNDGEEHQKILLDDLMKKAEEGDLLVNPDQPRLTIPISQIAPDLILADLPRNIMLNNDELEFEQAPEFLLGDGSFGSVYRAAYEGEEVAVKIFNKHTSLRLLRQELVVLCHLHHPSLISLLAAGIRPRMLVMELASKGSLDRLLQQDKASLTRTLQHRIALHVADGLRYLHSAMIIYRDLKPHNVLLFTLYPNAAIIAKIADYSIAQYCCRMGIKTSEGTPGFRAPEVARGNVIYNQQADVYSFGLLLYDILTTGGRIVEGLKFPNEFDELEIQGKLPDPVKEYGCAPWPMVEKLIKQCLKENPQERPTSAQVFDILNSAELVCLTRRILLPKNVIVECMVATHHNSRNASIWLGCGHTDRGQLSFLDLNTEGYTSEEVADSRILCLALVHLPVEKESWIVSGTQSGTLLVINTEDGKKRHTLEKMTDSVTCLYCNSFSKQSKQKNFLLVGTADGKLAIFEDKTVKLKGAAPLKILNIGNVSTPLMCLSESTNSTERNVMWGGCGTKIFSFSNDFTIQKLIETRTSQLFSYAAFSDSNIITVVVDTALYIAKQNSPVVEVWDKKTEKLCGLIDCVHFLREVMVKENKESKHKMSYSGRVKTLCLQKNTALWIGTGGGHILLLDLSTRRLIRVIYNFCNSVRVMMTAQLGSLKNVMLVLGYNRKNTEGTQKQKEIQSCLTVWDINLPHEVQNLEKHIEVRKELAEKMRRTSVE
The data set can be described thus: Immunoprecipitation/Western analysis of LRRK2 phosphorylation at Ser910, Ser935, Ser955, Ser973 in HEK293 T-REx GFP-LRRK2 G2019S cells. The note with it: 20 µM, 90 min, HEK293 GFP-LRRK2 G2019S, Figure 6. In kind it is cell-based. As to the method:
Immunoblot analysis: BacMam LRRK2-GFP transduced U-2 OS or SH-SY5Y cells (10^7 cells) were left untreated or treated with 3 µM LRRK2-IN-I for 90 min. For lysate preparation, the cells were washed once with ice-cold PBS and lysed by addition of ice-cold lysis buffer (20 mM Tris-HCl, pH 7.4, 1% NP-40, 5 mM EDTA, 5 mM NaF, 150 mM NaCl, and 1∶100 of protease and phosphatase inhibitor cocktails). The lysate was cleared of debris by centrifugation. Equal amount of total protein was loaded onto each lane for SDS-PAGE (3–8% Tris Acetate). The proteins were transferred onto nitrocellulose membrane using the iBLOT® dry blotting system (Life Technologies) according to manufacturer’s protocol. The membranes were blocked and incubated with a primary antibody against LRRK2 (Cell Signaling Technologies), followed by incubation with alkaline phosphatase-conjugated secondary antibody (WesternBreeze® chromogenic Kit, Life Technologies). The blot was developed by using the chromogenic BCIP/NBT substrate (WesternBreeze® chromogenic Kit, Life Technologies). […] Two days post induction, cells were treated for 90 minutes in the presence of 20 µM of compound or DMSO vehicle control. Cells were rapidly lysed in ice cold lysis buffer 50 mM Tris/HCl, pH 7.5, 1 mM EGTA, 1 mM EDTA, […] 1 mM sodium orthovanadate, 10 mM sodium beta-glycerolphosphate, 50 mM NaF, 5 mM sodium pyrophosphate, 0.27 M sucrose, 1 mM benzamidine and 2 mM phenylmethanesulphonylfluoride (PMSF) and one tablet each complete protease inhibitor and PhosSTOP phosphatase inhibitor (Roche) and was supplemented with 1% (v/v) Triton X-100. GFP-LRRK2 was immunoprecipitated with GFP nanotrap beads (ChromoTek). Immunecomplexes were washed twice with lysis buffer supplemented with 300 mM NaCl and once with Buffer A (50 mM Tris/HCl, pH 7.5, 50 mM NaCl, 0.1 mM EGTA and 0.1% (v/v) 2-mercaptoethanol, and 0.27 M sucrose).

A short description of data set [11]: Cytotoxicity assay (resazurin-based cell viability). The note with it: human. On the technique in general: Resazurin is reduced to fluorescent resorufin, in cell work by metabolically active cells.
The mark [12] stands for this setting: SH-SY5Y, G2019S, +/- SD, * = partial inhibition, read-out: IC50, TR-FRET cell-based assay for Ser935 phosphorylation of LRRK2.
Where [13] appears, read: SH-SY5Y, Tocriscreen Mini library screen, 20 µM, SH-SY5Y G2019S, relative to LRRK2-IN-1 control.
Where [14] appears, read: dose-response follow-up, SH-SY5Y G2019S.
[15] abbreviates: dose-response follow-up, SH-SY5Y G2019S, read-out: Cellular TR-FRET Assay IC50 +/-SD.

pIC50: −log10 of the molar value.

T2 sequence (Q5S007 whole entry G2019S): as above
T1 sequence (Q5S007 whole entry): as the sequence (Q5S007 whole entry G2019S) above, with S2019G counted along it

With `O=S(=O)(NCCNC/C=C/c1ccc(Br)cc1)c1cccc2cnccc12` [H-89], the pIC50 in data set [1], in data set [2], in data set [3] (setting [12]) and in data set [4] was less than 4.70 in each case. Further, in data set [5], the “effect on the phosphorylation of Ser935 in the TR-FRET cellular assay” value is on record as “no effect”.

Turning to `O=Nc1c(-c2c(O)[nH]c3ccccc23)[nH]c2ccccc12` [Indirubin-3-monoxime, Indirubin-3′-monoxime], the pIC50 in [1] was 5.42; in data set [6] it was less than 4.70; in [7] it was less than 5.00; in data set [2], 5.71; in data set [8] it was 5.56; in [3] (setting [12]) it was 5.21. Further, the pIC50 in data set [3] (setting [15]) was 5.36; in data set [4], less than 5.00; in data set [9], 5.43. In addition, the “effect on LRRK2 activity in vitro” value in data set [7] (result in words) is “did not repress LRRK2 activity in vitro”. The inhibition at 20 µM in data set [3] (setting [13]) came to 63.5%. Further, in data set [3] (setting [14]), the “Cellular TR-FRET Assay Max % Inhibition” value is reported as 64%.

With `Oc1c2ccccc2c2c3c(cccc13)N=N2` [SP 600125], the “effect on phosphorylation of Ser910, Ser935, Ser955 and Ser973 (IP-Western)” value in [10] is “inhibited phosphorylation of Ser910, Ser935, Ser955 and Ser973”. The pIC50 in [7] is 6.66; in [3] (setting [15]) it was 6.00; in data set [11], less than 4.70. Also, the inhibition at 20 µM in [3] (setting [13]) amounted to 88%. The “%Inhibition Initial screen” value in data set [3] (Tocriscreen Mini library screen, 20 µM, SH-SY5Y G2019S, relative to LRRK2-IN-1 control) is given as 88.3%. The “Cellular TR-FRET Assay Max % Inhibition” value in data set [3] (setting [14]) is reported as 103%.
